We go through nine compounds from ChEMBL document CHEMBL5727547, “Sodium channel modulators” (2020).

A short description of assay [1]: (§1) Automated patch clamp (Inactivation State Block): Test Protocol for Determining the Potency of Compounds on Nav1.2 and Nav1.6 Subtypes of Voltage-Gated Sodium Ion Channels Expressed in Mammalian CellsCell culture procedures: Chinese hamster ovary (CHO) cells were stably transfected with the cDNA sequence of either the human SCN2A or SCN8A genes to create hNav1.2 or hNav1.6 cells respectively. The cell lines were cultured in Ham's F-12 medium supplemented with 10% fetal bovine serum and antibiotics in a tissue incubator at 37° C. under a humidified air/CO2 mixture (95/5 v/v). On the day of the experiment, cells were washed twice with Hank's balanced salt solution, treated with trypsin, and resuspended in fresh culture media at a density of 4−6×10^6 cells in 20 ml. Immediately before placing in the IonWorks Quattro instrument, cells were washed in Hank's balanced salt solution to remove culture medium and re-suspended in 3 ml of Hank's balanced salt solution. Automated patch clamp recordings of cells using the IonWorks Quattro Instrument: The assay used a 384 microwell plate, which enabled 20 compounds to be studied at four different concentrations in quadruplicate as well as allowing a vehicle control group and a positive control group using mexiletine at 8 different concentrations. Cells were added to the wells of the Population Patch Clamp planar electrode using a 48-channel pipettor in a volume of 6 μL, per well. After 5 minutes incubation at ambient temperature with compounds or vehicle, membrane currents were recorded using the patch clamp amplifier. The pulse pattern was repeated twice, before and after compound addition and peak current amplitudes were measured at TP12 to measure Inactivation State Block. Data analysis: Data acquisition and analyses were carried out using the IonWorks Quattro system operation software which uses an algorithm to correct data for leak currents. Concentration-response curves were fitted by non-linear least squares regression allowing calculation of an IC50 value (μM), being the concentration of the compound producing half-maximal inhibition.

Assay [2] is described as follows: Automated patch clamp (Tonic Block): Test Protocol for Determining the Potency of Compounds on Nav1.2 and Nav1.6 Subtypes of Voltage-Gated Sodium Ion Channels Expressed in Mammalian CellsCell culture procedures: Chinese hamster ovary (CHO) cells were stably transfected with the cDNA sequence of either the human SCN2A or SCN8A genes to create hNav1.2 or hNav1.6 cells respectively. The cell lines were cultured in Ham's F-12 medium supplemented with 10% fetal bovine serum and antibiotics in a tissue incubator at 37° C. under a humidified air/CO2 mixture (95/5 v/v). On the day of the experiment, cells were washed twice with Hank's balanced salt solution, treated with trypsin, and resuspended in fresh culture media at a density of 4−6×10^6 cells in 20 ml. Immediately before placing in the IonWorks Quattro instrument, cells were washed in Hank's balanced salt solution to remove culture medium and re-suspended in 3 ml of Hank's balanced salt solution. Automated patch clamp recordings of cells using the IonWorks Quattro Instrument: The assay used a 384 microwell plate, which enabled 20 compounds to be studied at four different concentrations in quadruplicate as well as allowing a vehicle control group and a positive control group using mexiletine at 8 different concentrations. […].

Assay [3] can be described thus: as §1, with “(Tonic” for “(Inactivation State”, “TP11” for “TP12”, “10 Hz Frequency-dependent” for “Inactivation State”.

Take `Cc1cccc(C)c1OCCCNC(c1ccccn1)c1ccccn1`: in assay [1], the IC50 was 0.1 µM.

On to `Cc1cccc(C)c1OCCCNCc1cccc(C(F)(F)F)c1`, for which the IC50 in assay [2], in assay [3] and in assay [1] was more than 10 µM each time.

With `Cc1cccc(C)c1OCCCNCc1cc(C(C)(C)C)cc(C(C)(C)C)c1`, the IC50 in assay [3] and in assay [1] was more than 10 µM in each case.

With `Cc1n[nH]c(C)c1OCCCNCc1cccc(-c2cncnc2)c1`, the half-inhibitory concentration (IC50) in assay [3] and in assay [1] was more than 10 µM in each case.

Consider `Cc1cccc(C)c1OCCCNCc1ccc(-c2ccccc2)cc1`, for which the 50% inhibitory concentration (IC50) in assay [3] and in assay [1] was more than 1000 µM in each case.

As to `Cc1cccc(C)c1OCCCNCc1cccc(C#N)c1`, the 50% inhibitory concentration (IC50) in assay [3] and in assay [1] was 2 µM in each case.

Turning to `Cc1nn(C)c(C)c1OCCCNCc1cccc(-c2cncnc2)c1`, the IC50 in assay [3] and in assay [1] was more than 10 µM in each case.

As for `Cc1n[nH]c(C)c1OCCCNC(c1ccccn1)c1ccccn1`, the half-inhibitory concentration (IC50) in assay [3] and in assay [1] was more than 10 µM in each case.

Take `Cc1nn(C)c(C)c1OCCCNC(c1ccccn1)c1ccccn1`: the IC50 in assay [3] and in assay [1] was more than 10 µM in each case.
